Results from patent EP0745595A1, “3-(3-Aryloxyphenyl)-1-(substituted methyl)-s-triazine-2,4,6-oxo or thiotrione herbicidal agents” (American Cyanamid Company, priority 1995, dated 1996).

Legend:
Assay type in all cases: in vivo
[1] = test system: ECHINOCHLOA CRUS-GALLI; assay: Preemergence evaluation in the presence of transplanted rice under flooded paddy conditions (Example 43), ECHCG (Barnyard Grass); parameters: key: visual rating on a 0-9 scale, compared with control; settings: applied three days after sowing, 25 to 30 days after treatment
Protocol: (§1) Results of herbicide evaluation are expressed on a rating scale (0-9). The scale is based upon a visual observation of plant stand, vigor, malformation, size, chlorosis and overall plant appearance as compared with a control.
(§2) In this example, Deluvian paddy soil (Toyokawa paddy soil) is placed in plastic pots, 100cm^2 x 9 cm in depth. Water is added to the level of the soil surface in the pot and the mixture is paddled 3 cm in depth.
(§3) Pots are then variously sown with monocotyledenous weed seeds and tubers at 0-2 cm in soil depth, as well as transplanted rice plants at the 2.5 leaf stage. The rice plants are transplanted at about 3 cm soil depth. Water is then added to all of the pots to 3 cm deep and kept at a depth of 3 cm for the duration of the test. Test compounds are applied in the manner described in Example 42 three days after transplanting the rice plants and sowing the weed seeds and tubers. The pots are then placed on greenhouse benches and cared for in the conventional manner. Tests are examined at 25 to 30 days after treatment and rated according to the rating system provided in Example 40. The compounds evaluated are reported by compound number given in Example 40.

[2] = test system: SAGITTARIA PYGMAEA; assay: Preemergence evaluation in the presence of transplanted rice under flooded paddy conditions (Example 43), SAGPY (Arrowhead (Pygmaea)); parameters: key: visual rating on a 0-9 scale, compared with control; settings: applied three days after sowing, 25 to 30 days after treatment
Protocol: as §1, §2, §3

[3] = test system: CYPERUS SEROTINUS; assay: Preemergence evaluation in the presence of transplanted rice under flooded paddy conditions (Example 43), CYPSE (Flatsedge, perennial); parameters: key: 0-9 visual rating scale vs. untreated control; settings: applied three days after sowing, 25 to 30 days after treatment
Protocol: as §1, §2, §3

[4] = test system: […]; assay: Preemergence evaluation in the presence of transplanted rice under flooded paddy conditions (Example 43), MOOVA (Monochoria); settings: applied three days after sowing, 25 to 30 days after treatment
Protocol: as §1, §2, §3

[5] = test system: CYPERUS DIFFORMIS; assay: Preemergence evaluation in the presence of transplanted rice under flooded paddy conditions (Example 43), CYPDI (Flatsedge, smallflower); parameters: key: visual rating on a 0-9 scale, compared with control; settings: applied three days after sowing, 25 to 30 days after treatment
Protocol: as §1, §2, §3

[6] = test system: SCIRPUS JUNCOIDES; assay: Preemergence evaluation in the presence of transplanted rice under flooded paddy conditions (Example 43), SCPJU (Bulrush, Japanese); parameters: key: visual rating on a 0-9 scale, compared with control; settings: applied three days after sowing, 25 to 30 days after treatment
Protocol: as §1, §2, §3

[7] = test system: ORYZA SATIVA, L. CV. KOSHIHIKARI; assay: Post-transplant rice evaluation under flooded paddy conditions (Example 43), ORYSAK (Rice, Koshihikari); parameters: key: visual rating on a 0-9 scale, compared with control; settings: applied three days after transplanting rice, 25 to 30 days after treatment
Protocol: as §1, §2, §3

[8] = test system: ECHINOCHLOA CRUS-GALLI, (L) BEAU; assay: Preemergence herbicidal evaluation, ECHCG (Barnyardgrass); settings: four to five weeks after treatment
How it was run: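 Barnyardgrass seeds were mixed with potting soil and planted on about one inch of soil in pint cups for preemergence testing. Treated cups were kept on greenhouse benches, watered and maintained by standard greenhouse practice. After four to five weeks, each cup was visually rated on a 0-9 scale against an untreated control.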

## COC(=O)Cn1c(=O)n(C)c(=O)n(-c2cc(Oc3c(F)cc(C(F)(F)F)cc3Cl)ccc2Br)c1=O [Compound 2, Methyl 3-{2-bromo-5-[(2-chloro-α,α,α,6-tetrafluoro-p-tolyl)oxy]phenyl}tetrahydro-5-methyl-2,4,6-trioxo-s-triazine-1(2H)-acetate]
[1]; 0.025 kg/ha
  Herbicidal effect rating, ECHCG: 9.0
[1]; 0.050 kg/ha
  Herbicidal effect rating, ECHCG: 9.0
[1]; 0.100 kg/ha
  Herbicidal effect rating, ECHCG: 9.0
[1]; 0.250 kg/ha
  Herbicidal effect rating, ECHCG: 9.0
[2]; 0.025 kg/ha
  Herbicidal effect rating, SAGPY: 3.0
[2]; 0.050 kg/ha
  Herbicidal effect rating, SAGPY: 7.0
[2]; 0.100 kg/ha
  Herbicidal effect rating, SAGPY: 9.0
[2]; 0.250 kg/ha
  Herbicidal effect rating, SAGPY: 9.0
[3]; 0.025 kg/ha
  Herbicidal effect rating, CYPSE: 4.0
[3]; 0.050 kg/ha
  Herbicidal effect rating, CYPSE: 7.0
[3]; 0.100 kg/ha
  Herbicidal effect rating, CYPSE: 9.0
[3]; 0.250 kg/ha
  Herbicidal effect rating, CYPSE: 9.0
[4]; 0.025 kg/ha
  Herbicidal effect rating, MOOVA: 9.0
[4]; 0.050 kg/ha
  Herbicidal effect rating, MOOVA: 9.0
[4]; 0.100 kg/ha
  Herbicidal effect rating, MOOVA: 9.0
[4]; 0.250 kg/ha
  Herbicidal effect rating, MOOVA: 9.0
[5]; 0.025 kg/ha
  Herbicidal effect rating, CYPDI: 9.0
[5]; 0.050 kg/ha
  Herbicidal effect rating, CYPDI: 9.0
[5]; 0.100 kg/ha
  Herbicidal effect rating, CYPDI: 9.0
[5]; 0.250 kg/ha
  Herbicidal effect rating, CYPDI: 9.0
[6]; 0.025 kg/ha
  Herbicidal effect rating, SCPJU: 8.0
[6]; 0.050 kg/ha
  Herbicidal effect rating, SCPJU: 9.0
[6]; 0.100 kg/ha
  Herbicidal effect rating, SCPJU: 9.0
[6]; 0.250 kg/ha
  Herbicidal effect rating, SCPJU: 9.0
[7]; 0.025 kg/ha
  Herbicidal effect rating, ORYSAK: 1.0
[7]; 0.050 kg/ha
  Herbicidal effect rating, ORYSAK: 3.0
[7]; 0.100 kg/ha
  Herbicidal effect rating, ORYSAK: 5.0
[7]; 0.250 kg/ha
  Herbicidal effect rating, ORYSAK: 9.0

## COC(=O)Cn1c(=O)n(C)c(=O)n(-c2cc(Oc3ccc(C(F)(F)F)cc3Cl)ccc2[N+](=O)[O-])c1=O [Compound 3, Methyl 3-{5-[(2-chloro-α,α,α-trifluoro-p-tolyl)oxy]-2-nitrophenyl}tetrahydro-5-methyl-2,4,6-trioxo-s-triazine-1(2H)-acetate]
[1]; 0.025 kg/ha
  Herbicidal effect rating, ECHCG: 8.0
[1]; 0.050 kg/ha
  Herbicidal effect rating, ECHCG: 9.0
[1]; 0.100 kg/ha
  Herbicidal effect rating, ECHCG: 9.0
[1]; 0.250 kg/ha
  Herbicidal effect rating, ECHCG: 9.0
[2]; 0.025 kg/ha
  Herbicidal effect rating, SAGPY: 0.0
[2]; 0.050 kg/ha
  Herbicidal effect rating, SAGPY: 0.0
[2]; 0.100 kg/ha
  Herbicidal effect rating, SAGPY: 1.0
[2]; 0.250 kg/ha
  Herbicidal effect rating, SAGPY: 3.0
[3]; 0.025 kg/ha
  Herbicidal effect rating, CYPSE: 0.0
[3]; 0.050 kg/ha
  Herbicidal effect rating, CYPSE: 5.0
[3]; 0.100 kg/ha
  Herbicidal effect rating, CYPSE: 8.0
[3]; 0.250 kg/ha
  Herbicidal effect rating, CYPSE: 9.0
[4]; 0.025 kg/ha
  Herbicidal effect rating, MOOVA: 3.0
[4]; 0.050 kg/ha
  Herbicidal effect rating, MOOVA: 5.0
[4]; 0.100 kg/ha
  Herbicidal effect rating, MOOVA: 7.0
[4]; 0.250 kg/ha
  Herbicidal effect rating, MOOVA: 9.0
[5]; 0.025 kg/ha
  Herbicidal effect rating, CYPDI: 5.0
[5]; 0.050 kg/ha
  Herbicidal effect rating, CYPDI: 8.0
[5]; 0.100 kg/ha
  Herbicidal effect rating, CYPDI: 9.0
[5]; 0.250 kg/ha
  Herbicidal effect rating, CYPDI: 9.0
[6]; 0.025 kg/ha
  Herbicidal effect rating, SCPJU: 5.0
[6]; 0.050 kg/ha
  Herbicidal effect rating, SCPJU: 7.0
[6]; 0.100 kg/ha
  Herbicidal effect rating, SCPJU: 9.0
[6]; 0.250 kg/ha
  Herbicidal effect rating, SCPJU: 9.0
[7]; 0.025 kg/ha
  Herbicidal effect rating, ORYSAK: 0.0
[7]; 0.050 kg/ha
  Herbicidal effect rating, ORYSAK: 1.0
[7]; 0.100 kg/ha
  Herbicidal effect rating, ORYSAK: 5.0
[7]; 0.250 kg/ha
  Herbicidal effect rating, ORYSAK: 8.0

## COC(=O)Cn1c(=O)[nH]c(=O)n(-c2cc(Oc3ccc(C(F)(F)F)cc3Cl)ccc2[N+](=O)[O-])c1=O [Compound 8, Methyl 3-{5-[(2-chloro-α,α,α-trifluoro-p-tolyl)oxy]-2-nitrophenyl}tetrahydro-2,4,6-trioxo-s-triazine-1(2H)-acetate]
[8]; Rate 0.125 kg/ha
  ECHCG rating: 0.0
[8]; Rate 0.250 kg/ha
  ECHCG rating: 0.0
[8]; Rate 0.500 kg/ha
  ECHCG rating: 0.0
[1]; 0.032 kg/ha
  Herbicidal effect rating, ECHCG: 8.0
[1]; 0.063 kg/ha
  Herbicidal effect rating, ECHCG: 8.0
[1]; 0.125 kg/ha
  Herbicidal effect rating, ECHCG: 9.0
[1]; 0.250 kg/ha
  Herbicidal effect rating, ECHCG: 9.0
[2]; 0.032 kg/ha
  Herbicidal effect rating, SAGPY: 1.0
[2]; 0.063 kg/ha
  Herbicidal effect rating, SAGPY: 3.0
[2]; 0.125 kg/ha
  Herbicidal effect rating, SAGPY: 6.0
[2]; 0.250 kg/ha
  Herbicidal effect rating, SAGPY: 8.0
[4]; 0.032 kg/ha
  Herbicidal effect rating, MOOVA: 7.0
[4]; 0.063 kg/ha
  Herbicidal effect rating, MOOVA: 9.0
[4]; 0.125 kg/ha
  Herbicidal effect rating, MOOVA: 9.0
[4]; 0.250 kg/ha
  Herbicidal effect rating, MOOVA: 9.0
[5]; 0.032 kg/ha
  Herbicidal effect rating, CYPDI: 7.0
[5]; 0.063 kg/ha
  Herbicidal effect rating, CYPDI: 9.0
[5]; 0.125 kg/ha
  Herbicidal effect rating, CYPDI: 9.0
[5]; 0.250 kg/ha
  Herbicidal effect rating, CYPDI: 9.0
[6]; 0.032 kg/ha
  Herbicidal effect rating, SCPJU: 1.0
[6]; 0.063 kg/ha
  Herbicidal effect rating, SCPJU: 5.0
[6]; 0.125 kg/ha
  Herbicidal effect rating, SCPJU: 7.0
[6]; 0.250 kg/ha
  Herbicidal effect rating, SCPJU: 8.0
[7]; 0.032 kg/ha
  Herbicidal effect rating, ORYSAK: 2.0
[7]; 0.063 kg/ha
  Herbicidal effect rating, ORYSAK: 3.0
[7]; 0.125 kg/ha
  Herbicidal effect rating, ORYSAK: 2.0
[7]; 0.250 kg/ha
  Herbicidal effect rating, ORYSAK: 6.0
